Experimental data as given in PubChem BioAssay (NCI).
“And” between values parts separate entries of the source, which are not always exact repeats. Equal entries are not always repeated.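 In this assay, cells in 96-well plates receive the compound at five concentrations for 48 hours. Endpoints are linearly interpolated between the surrounding concentrations. The concentration for 50% growth inhibition is given as GI50. TGI: concentration producing complete growth inhibition.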

Key:
Experiment in all cases: NCI-60 cell line screen, 48 h
HCC-2998 colon = system: HCC-2998 colon
DU-145 prostate = system: DU-145 prostate
MALME-3M melanoma = system: MALME-3M melanoma
OVCAR-8 ovarian = system: OVCAR-8 ovarian
OVCAR-5 ovarian = system: OVCAR-5 ovarian
SNB-75 CNS = system: SNB-75 CNS
HOP-92 NSCLC = system: HOP-92 NSCLC
BT-549 breast = system: BT-549 breast
NCI-H522 lung = system: NCI-H522 lung
COLO 205 colon = system: COLO 205 colon

SMILES | GI50 (HCC-2998 colon) [µM] | TGI (HCC-2998 colon) [µM] | GI50 (DU-145 prostate) [µM] | TGI (DU-145 prostate) [µM] | GI50 (MALME-3M melanoma) [µM] | TGI (MALME-3M melanoma) [µM] | GI50 (OVCAR-8 ovarian) [µM] | TGI (OVCAR-8 ovarian) [µM] | GI50 (OVCAR-5 ovarian) [µM] | TGI (OVCAR-5 ovarian) [µM] | GI50 (SNB-75 CNS) [µM] | TGI (SNB-75 CNS) [µM] | GI50 (HOP-92 NSCLC) [µM] | TGI (HOP-92 NSCLC) [µM] | GI50 (BT-549 breast) [µM] | TGI (BT-549 breast) [µM] | TGI (NCI-H522 lung) [µM] | TGI (COLO 205 colon) [µM] | GI50 (NCI-H522 lung)
N=C(N)c1ccc(-c2ccc(-c3cccs3)s2)cc1 | 0.747 | 2.17 | 1.68 | 3.14 | 1.69 | 3.23 | 1.79 | 4.79 | 1.17 | 2.68 | 1.69 | 3.17 | 2.71 | 16 | 3.77 | 14.5 | – | – | –
Nc1nc(N)c(N=O)c(Nc2ccc(Br)cc2)n1 | – | > 100 | – | – | – | 44.6 | – | > 100 | – | > 100 | – | 40.3 | – | > 100 | – | – | > 100 | 38.8 | –
CC12CCC3C(CCC4CC(OC(=O)Cc5ccc(N(CCCl)CCCl)cc5)CCC43C)C1CCC(=O)N2 (stereo not given) | – | 41.6 | – | – | – | 32.9 | – | 29.2 | – | – | – | 28.9 | – | 30.9 | – | – | 28.3 | 31.1 | –
COc1ccc(-c2c3c([nH]c(=S)c2C#N)CC(C)(C)CC3=O)cc1 | – | > 100 | – | > 100 | – | > 100 | – | > 100 | – | > 100 | – | – | – | > 100 | – | > 100 | > 100 | – | –
COc1c(O)c2c3c(c(C)cc(O)c3c1O)C(=O)C(O)(C(C)(C)C(C)=O)C2=O (stereo not given) | – | – | – | – | – | > 100 | – | > 100 | – | > 100 | – | > 100 | – | > 100 | – | – | > 100 | > 100 | 49.7 µM and > 100 µM
CSc1c(C#N)c(N)n(-c2ccc(C)cc2)c(=O)c1C#N | – | > 100 | – | > 100 | – | > 100 | – | > 100 | – | > 100 | – | > 100 | – | – | – | > 100 | > 100 | > 100 | –
O=C(CN(c1ccccc1)c1ccccc1)N1c2ccccc2C2C=CC=CC21 (stereo not given) | – | 22.7 | – | – | – | 47.1 | – | 53.5 | – | > 57.8 | – | 52.3 | – | – | – | – | 49 | 24.7 | –
CC1(C)C2CC(=O)C1(C)C(O)C2Br (stereo not given) | – | > 100 | – | > 100 | – | > 100 | – | > 100 | – | > 100 | – | – | – | > 100 | – | > 100 | – | – | –
CCN1CCCC(NCc2c3ccccc3c(CNC3CCCN(CC)C3)c3ccccc23)C1 (stereo not given) | – | 27.9 | – | – | – | 40.9 | – | > 74.4 | – | 19.8 | – | 25 | – | 38.6 | – | – | 8.12 | 12.7 | –
CC[n+]1[b-](C(C)(C)C)n(/N=C/C(C)(C)C)[b-](C(C)(C)C)[n+]1CC | – | > 100 | – | – | – | > 100 | – | > 100 | – | > 100 | – | > 100 | – | – | – | > 100 | > 100 | > 100 | –
CCN(CC)CCCNC(=O)c1ccc([N+](=O)[O-])cc1O | – | > 100 | – | – | – | > 100 | – | > 100 | – | > 100 | – | > 100 | – | > 100 | – | – | > 100 | > 100 | –
S=C(/N=c1\sc(Nc2ccc(Cl)cc2)nc2sc3c(c12)CCN(N1CCc2c(sc4nc(Nc5ccc(Cl)cc5)s/c(=N\C(=S)Nc5ccc(Cl)cc5)c24)C1)C3)Nc1ccc(Cl)cc1 | – | – | – | 64.6 | – | > 100 | – | > 100 | – | 54.2 | – | 64.5 | – | – | – | > 100 | > 100 | > 100 | –
CC(=O)c1cccn1/C=C(\OC(=O)OC(C)(C)C)c1ccc[nH]1 | – | > 100 | – | > 100 | – | > 100 | – | > 100 | – | > 100 | – | 67.2 | – | – | – | > 100 | > 100 | > 100 | –
CC(C(=O)N1C(=O)N(C(=O)C(C)C(O)c2ccccc2)C2CCCCC21)C(O)c1ccccc1 (stereo not given) | – | – | – | – | – | > 100 | – | > 100 | – | > 100 | – | – | – | – | – | – | > 100 | > 100 | –
CCC1=CC2CN3Cn4c(c(COCc5c6n(c7ccccc57)CN5CC7C=C(CC)C5C6(C(=O)OC)C7)c5ccccc54)C(C(=O)OC)(C2)C13 | – | – | – | – | – | > 100 | – | > 100 | – | – | – | – | – | – | – | – | > 100 | > 100 | –
C=C1c2cc3c(cc2CC12Cc1cc4c(cc1C2=O)CCC4)CCC3 (stereo not given) | – | > 100 | – | > 100 | – | > 100 | – | > 100 | – | > 100 | – | > 100 | – | > 100 | – | – | > 100 | – | –
CN(Cc1ccccc1)c1cc(=O)n(C)c(=O)[nH]1 | – | > 100 | – | > 100 | – | > 100 | – | > 100 | – | > 100 | – | – | – | > 100 | – | > 100 | > 100 | > 100 | –
O=C(NCCCN(CCCCN(CCCNC(=O)C(F)(F)F)Cc1ccc2ccccc2c1)Cc1ccc2ccccc2c1)C(F)(F)F | – | 2.93 | – | > 100 | – | – | – | > 100 | – | > 100 | – | > 100 | – | > 100 | – | > 100 | > 100 | – | –
